Source: BigSolDB 2.1

Cc1c(N(C)CS(=O)(=O)[O-])c(=O)n(-c2ccccc2)n1C.O.[Na+]
solubility (mole fraction)
Details	in acetone	in ethanol	in ethyl acetate	in isopropanol	in methanol	in methyl acetate	in n-butanol	in n-propanol	in sec-butanol	in water
293.15 K	0.0001	0.0032	0.0001	0.0003	0.0278	0.0001	0.0003	0.0011	0.0002	0.0538
298.15 K	0.0001	0.0037	0.0001	0.0004	0.0318	0.0001	0.0004	0.0013	0.0003	0.0576
303.05 K	0.0002	0.0042	0.0001	0.0005	0.0363	0.0001	0.0005	0.0016	0.0004	0.0615
308.05 K	0.0002	0.0049	0.0002	0.0006	0.0408	0.0001	0.0007	0.0019	0.0006	0.0656
313.05 K	0.0003	0.0056	0.0002	0.0008	0.0475	0.0002	0.0009	0.0023	0.0007	0.0697
318.05 K	0.0003	0.0064	0.0003	0.0009	0.0521	0.0002	0.0012	0.0028	0.001	0.0738
323.05 K	0.0004	0.0073	0.0003	0.0011	0.058	0.0003	0.0015	0.0034	0.0013	0.0782
327.95 K	0.0005	0.0082	0.0004	0.0014	0.0634	0.0004	0.0019	0.004	0.0016	0.0825
332.85 K	0.0006	0.0092	0.0005	0.0016	0.0688	0.0005	0.0024	0.0047	0.0021	0.087
